Values joined by “and” are separate entries in the source; they are usually repeats but may differ in a detail not shown here. Equal entries are not always repeated.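 In this assay, cells in 96-well plates receive the compound at five concentrations for 48 hours. Endpoints are linearly interpolated between the surrounding concentrations. GI50 is the concentration that inhibits growth by half. The concentration for full growth arrest is given as TGI.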
Tests used:
Assay in all cases: inhibition of tumour cell growth, NCI panel, 48 h
[1] = test system: NCI-H460 lung
[2] = test system: MCF7 breast
[3] = test system: MDA-MB-231 breast
[4] = test system: HL-60(TB) leukemia
[5] = test system: M14 melanoma
[6] = test system: NCI-H226 lung
[7] = test system: RPMI-8226 leukemia
[8] = test system: LOX IMVI melanoma
[9] = test system: HCT-116 colon
[10] = test system: SNB-19 CNS

Structure (SMILES)	TGI [1]	TGI [2]	TGI [3]	TGI [4]	TGI [5]	TGI [6]	TGI [7]	TGI [8]	TGI [9]	TGI [10]	GI50 [8]	GI50 [4]	GI50 [10]
O=c1ccn(-c2ccccn2)c(=O)n1-c1ccccn1	> 100 µM	> 100 µM	> 100 µM	> 100 µM	> 100 µM	> 100 µM	> 100 µM	> 100 µM	> 100 µM	> 100 µM	–	–	–
O=[N+]([O-])/C(Cl)=C(/C(Cl)=C(Cl)Cl)N1CCCCC1	43 µM	17.4 µM	41.6 µM	4.83 µM	23.3 µM	34.1 µM	18.2 µM	25.5 µM	18.9 µM	54.1 µM	–	–	–
Cc1cn(CCCCCOC(=O)NC(CCCNC(N)=O)C(=O)O)c(=O)[nH]c1=O (stereo not drawn)	> 100 µM	> 100 µM	> 100 µM	> 100 µM	> 100 µM	> 100 µM	> 100 µM	> 100 µM	> 100 µM	> 100 µM	–	–	–
O=C(OC12CC3CC(CC(C3)C1)C2)c1ccc(NCc2cc(O)ccc2O)cc1	16.6 µM	8.54 µM	5.87 µM	0.627 µM	5.18 µM	6.2 µM	0.401 µM	8.94 µM	5.28 µM	11.7 µM	–	–	–
CCCCCCCCCCCCOCCOCCOCCOCCOCCOCC(=O)NC(Cc1ccccc1)C(=O)Oc1ccc([N+](=O)[O-])cc1 (stereo not drawn)	> 100 µM	> 100 µM	> 100 µM	> 100 µM	> 100 µM	> 100 µM	> 100 µM	> 100 µM	> 100 µM	> 100 µM	–	–	–
O=CN1CCN(C(=O)c2ccco2)C1=S	42.1 µM	10.6 µM	33.9 µM	8.94 µM	24.1 µM	54.8 µM	8.96 µM	14.8 µM	24.5 µM	> 70.6 µM	–	–	–
C[N+]1(CCN=C=NC2CCCCC2)CCOCC1	> 100 µM	> 100 µM	> 100 µM	> 100 µM	> 100 µM	> 100 µM	> 100 µM	> 100 µM	> 100 µM	> 100 µM	–	–	–
O=C1CC(c2ccccc2Cl)C2(C(=O)NC(=O)NC2=O)C(c2ccccc2Cl)C1 (stereo not drawn)	> 100 µM	> 100 µM	> 100 µM	> 100 µM	> 100 µM	> 100 µM	> 100 µM	> 100 µM	> 100 µM	> 100 µM	–	–	–
COc1ccc(C2Oc3c(OC)cc(CCCO)cc3C2CO)cc1OC (stereo not drawn)	> 100 µM	> 100 µM	> 100 µM	> 100 µM	> 100 µM	> 100 µM	60.4 µM and > 100 µM	> 100 µM	> 100 µM	> 100 µM	> 100 µM and 17 µM	–	–
Cn1nc2c(c1N)Cc1c(nn(C)c1N)-c1ccccc1-2	> 100 µM	> 100 µM	> 100 µM	> 100 µM	> 100 µM	> 100 µM	> 100 µM	> 100 µM	> 100 µM	> 100 µM	–	–	–
CC(=O)C1(O)CCC2(O)C3(O)CC=C4CC(O)CCC4(C)C3CC(OC(=O)c3ccc(O)cc3)C12C (stereo not drawn)	> 100 µM	> 100 µM	> 100 µM	> 100 µM	> 100 µM	> 100 µM	> 100 µM	> 100 µM	> 100 µM	> 100 µM	–	–	–
CCOc1ccc(N=Nc2ccc3cc(/C(C)=N/NC(=O)/C(C#N)=C\c4ccc(N(CCC#N)CCC#N)cc4)c(=O)oc3c2)cc1	> 10 µM	> 10 µM	> 10 µM	> 10 µM	> 10 µM	> 10 µM	> 10 µM	> 10 µM	> 10 µM	> 10 µM	–	–	–
COc1cc2c3c(cc(Cl)nc3c1OC)C(=O)C(=O)N2	42.7 µM	4.58 µM	3.83 µM	3.56 µM	29.3 µM	41.5 µM	> 100 µM	25.9 µM	13.6 µM	42.6 µM	–	–	–
N#C/C(=C\c1cccc(Br)c1)c1nc2ccccc2c(=O)[nH]1	> 100 µM	> 100 µM	> 100 µM	> 100 µM	> 100 µM	> 100 µM	> 100 µM	> 100 µM	> 100 µM	> 100 µM	–	–	–
COCC#C[C@@]1(O)CCCCC1CC(OC)OC (stereo partly drawn)	> 100 µM	> 100 µM	> 100 µM	> 100 µM	> 100 µM	> 100 µM	94.5 µM	> 100 µM	> 100 µM	> 100 µM	–	–	–
C=C1C[C@@H]2CC[C@@]34C[C@H]5O[C@H]6[C@@H](O3)[C@H]3O[C@H](CC[C@@H]3O[C@H]6[C@H]5O4)CC(=O)C[C@@H]3[C@@H](OC)[C@@H](C[C@H](O)CN)O[C@H]3C[C@H]3O[C@@H](CC[C@@H]1O2)C[C@@H](C)C3=C	0.161 µM	> 1 µM	0.087 µM	0.00466 µM	0.0307 µM	0.00433 µM	0.0344 µM	> 0.533 µM	0.101 µM	> 1 µM	–	0.000307 µM	0.00127 µM
O=C(/C=C\Nc1ccccc1O)C(F)(F)F	> 100 µM	> 100 µM	> 100 µM	67.8 µM	> 100 µM	> 100 µM	> 100 µM	> 100 µM	> 100 µM	> 100 µM	–	–	–
